Assays:
A549 cells = test: Growth inhibition of siRNA-transfected A549 cells, SYBR Green I DNA content; assay type: cell-based, human; settings: 10 nM siRNA, DNA content 96 hours after transfection; for Growth Inhibition in A549 cells by 10 nM siRNA: transporter gene targets
Outline: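 A549 cells reverse-transfected with 10 nM Stealth siRNAs via Lipofectamine RNAiMAX, seeded at 5×10^3 cells/cm^2 in RPMI 1640/10% FCS; non-specific siRNA control. DNA content read 96 h post-transfection by SYBR Green I fluorescence (ex 485/em 535 nm) after freeze-thaw and Triton X-100 lysis; mean of three wells.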

[1] = system: target transcript mRNA in A549 cells; test: Level of mRNA of target transcript in A549 cells by quantitative RT-PCR (Tables 12 and 13); assay type: cell-based, human; settings: 24 h post-transfection
Outline: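 A549 cells were transfected with siRNA at 0.1, 1.0 and 10 nM. RNA was extracted 24 h later, reverse-transcribed with random primers, and target mRNA quantified by SYBR Green qRT-PCR. Values were normalised to housekeeping genes HPRT and Lamin.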

Row | Substance | Growth Inhibition in A549 cells by 10 nM siRNA (A549 cells) | mRNA knockdown of transporter gene target transcript, 0.1 nM ([1]; 0.1 nM siRNA) | mRNA knockdown of transporter gene target transcript, 1 nM ([1]; 1 nM siRNA) | Growth Inhibition in A549 cells (A549 cells) | mRNA knockdown of energy and metabolism gene target transcript, 0.1 nM ([1]; 0.1 nM siRNA) | mRNA knockdown of energy and metabolism gene target transcript, 1 nM ([1]; 1 nM siRNA) | mRNA knockdown of transporter gene target transcript, 10 nM ([1]; 10 nM siRNA)
1 | SEQ ID NO: 4969: siRNA targeting ATP7B (chain 1 AAGGGAGCCACTTTGCTCTTGATGG; chain 2 AAGGGAGCCACUUUGCUCUUGAUGG; chemistry not given here; one strand in two spellings) | − (no growth inhibition) | − (<50% mRNA knockdown) | ++ (70-90% mRNA knockdown) |  |  |  | 
2 | SEQ ID NO: 4973: siRNA targeting ABCC5 (MRP5) (chain 1 TAAGATGGCAACAACGGGTCCTCCA; chain 2 UAAGAUGGCAACAACGGGUCCUCCA; chemistry not given here; one strand in two spellings) | − (no growth inhibition) | − (<50% mRNA knockdown) | − (<50% mRNA knockdown) |  |  |  | 
3 | SEQ ID NO: 4934: siRNA targeting SLC29A2 (ENT2) (chain 1 TGTGAAGACCAACACAAGGCACAGC; chain 2 UGUGAAGACCAACACAAGGCACAGC; chemistry not given here; one strand in two spellings) | − (no growth inhibition) | + (50-70% mRNA knockdown) | − (<50% mRNA knockdown) |  |  |  | 
4 | SEQ ID NO: 5308: Stealth siRNA targeting RRM2 (chain 1 TTATACATCTGCCAGATATCATGGT; chain 2 UUAUACAUCUGCCAGAUAUCAUGGU; Stealth siRNA, chemical pattern not given here; one strand in two spellings) |  |  |  | ++ (inhibits by at least 75%) | ++ (70-90% mRNA knockdown) | ++ (70-90% mRNA knockdown) | 
5 | SEQ ID NO: 4889: siRNA targeting SLC1A5 (ASCT2) (chain 1 TTGAAGAAGCGGATAAGCAGCTCCC; chain 2 UUGAAGAAGCGGAUAAGCAGCUCCC; Antisense strand given in DNA and RNA notation, chemistry not given here; one strand in two spellings) | − (no growth inhibition) | ++ (70-90% mRNA knockdown) | ++ (70-90% mRNA knockdown) |  |  |  | 
6 | SEQ ID NO: 4931: siRNA targeting SLC29A1 (ENT1) (chain 1 TTGAAGATGGCACTGAGAGAGTTCC; chain 2 UUGAAGAUGGCACUGAGAGAGUUCC; chemistry not given here; one strand in two spellings) | ++ (inhibits by at least 75%) | ++ (70-90% mRNA knockdown) | ++ (70-90% mRNA knockdown) |  |  |  | +++ (>90% mRNA knockdown)
7 | SEQ ID NO: 4890: siRNA targeting SLC1A5 (ASCT2) (chain 1 TTTACGAAGTCCAAGGACTGCTGGC; chain 2 UUUACGAAGUCCAAGGACUGCUGGC; Antisense strand given in DNA and RNA notation, chemistry not given here; one strand in two spellings) | − (no growth inhibition) | ++ (70-90% mRNA knockdown) | ++ (70-90% mRNA knockdown) |  |  |  | 
8 | SEQ ID NO: 4953: siRNA targeting ATP6V1B2 (chain 1 ATGATATCAAGGAAGTCTTCGGCCA; chain 2 AUGAUAUCAAGGAAGUCUUCGGCCA; chemistry not given here; one strand in two spellings) | ++ (inhibits by at least 75%) | − (<50% mRNA knockdown) | + (50-70% mRNA knockdown) |  |  |  | 
9 | SEQ ID NO: 4907: siRNA targeting SLC3A2 (4F2hc) (chain 1 TTTGTTGGATTCGAGTAGGCTCAGG; chain 2 UUUGUUGGAUUCGAGUAGGCUCAGG; Antisense strand given in DNA and RNA notation, chemistry not given here; one strand in two spellings) | − (no growth inhibition) | − (<50% mRNA knockdown) | − (<50% mRNA knockdown) |  |  |  | 
10 | SEQ ID NO: 4961: siRNA targeting ATP6V1F (chain 1 ATGTCATCCCGGTTTAGAAATTGCC; chain 2 AUGUCAUCCCGGUUUAGAAAUUGCC; chemistry not given here; one strand in two spellings) | − (no growth inhibition) | ++ (70-90% mRNA knockdown) | ++ (70-90% mRNA knockdown) |  |  |  | 
11 | SEQ ID NO: 4913: siRNA targeting SLC19A2 (ThTr1) (chain 1 AATACAAGGAGACGGTCTGGCTTGG; chain 2 AAUACAAGGAGACGGUCUGGCUUGG; Antisense strand given in DNA and RNA notation, chemistry not given here; one strand in two spellings) | − (no growth inhibition) | ++ (70-90% mRNA knockdown) | ++ (70-90% mRNA knockdown) |  |  |  | 
12 | SEQ ID NO: 4893: siRNA targeting SLC2A1 (GLUT1) (chain 1 TTCATCATCAGCATTGAATTCCGCC; chain 2 UUCAUCAUCAGCAUUGAAUUCCGCC; Antisense strand given in DNA and RNA notation, chemistry not given here; one strand in two spellings) | ++ (inhibits by at least 75%) | − (<50% mRNA knockdown) | − (<50% mRNA knockdown) |  |  |  | 
13 | SEQ ID NO: 4939: siRNA targeting ATP2B1 (PMCA1) (chain 1 ATTAACAGTAAGTTGGAACTGAAGG; chain 2 AUUAACAGUAAGUUGGAACUGAAGG; chemistry not given here; one strand in two spellings) | − (no growth inhibition) | + (50-70% mRNA knockdown) | ++ (70-90% mRNA knockdown) |  |  |  | 
14 | SEQ ID NO: 4902: siRNA targeting SLC7A5 (LAT1) (chain 1 AAAGAGGCCGCTGTATAATGCCAGC; chain 2 AAAGAGGCCGCUGUAUAAUGCCAGC; Antisense strand given in DNA and RNA notation, chemistry not given here; one strand in two spellings) | + (inhibits by at least 50%) | ++ (70-90% mRNA knockdown) | ++ (70-90% mRNA knockdown) |  |  |  | 
15 | SEQ ID NO: 4928: siRNA targeting SLC25A10 (DIC) (chain 1 AATAAAGCTGGCGACAAAGTGAGTG; chain 2 AAUAAAGCUGGCGACAAAGUGAGUG; chemistry not given here; one strand in two spellings) | ++ (inhibits by at least 75%) | ++ (70-90% mRNA knockdown) | ++ (70-90% mRNA knockdown) |  |  |  | 
16 | SEQ ID NO: 4963: siRNA targeting ATP6V1F (chain 1 TAGCGCAGGTCTTCGGCAGTGAACA; chain 2 UAGCGCAGGUCUUCGGCAGUGAACA; chemistry not given here; one strand in two spellings) | − (no growth inhibition) | ++ (70-90% mRNA knockdown) | ++ (70-90% mRNA knockdown) |  |  |  | 
17 | SEQ ID NO: 4919: siRNA targeting SLC9A1 (NHE1) (chain 1 AAACTCCTCAAAGAGGTGATACAGG; chain 2 AAACUCCUCAAAGAGGUGAUACAGG; chemistry not given here; one strand in two spellings) | + (inhibits by at least 50%) | ++ (70-90% mRNA knockdown) | ++ (70-90% mRNA knockdown) |  |  |  | 
18 | SEQ ID NO: 4910: siRNA targeting SLC5A6 (SMVT1) (chain 1 AAGGCAAGGCCTCTGGAAAGCATGA; chain 2 AAGGCAAGGCCUCUGGAAAGCAUGA; Antisense strand given in DNA and RNA notation, chemistry not given here; one strand in two spellings) | − (no growth inhibition) | − (<50% mRNA knockdown) | + (50-70% mRNA knockdown) |  |  |  | 
19 | SEQ ID NO: 4906: siRNA targeting SLC7A11 (xCT) (chain 1 TAATGAGAAATTTCCCAGTAGCCGC; chain 2 UAAUGAGAAAUUUCCCAGUAGCCGC; Antisense strand given in DNA and RNA notation, chemistry not given here; one strand in two spellings) | − (no growth inhibition) | + (50-70% mRNA knockdown) | ++ (70-90% mRNA knockdown) |  |  |  | 
